Columns and labels:
[1] = comparison of toxicity and potency with the chloroanalog; conditions: versus other analogs, such as its chloroanalog
[2] = organoleptic evaluation (odor and flavor) of the pyrimidine
[3] = character of vanilla flavor; conditions: 0.2 parts of 0.1% in propylene glycol; compared with the material omitted
Protocol: A vanilla flavor is prepared by admixing the following ingredients: […]

[4] = acute oral toxicity (LD50, no-effect dose); conditions: in vivo
[5] = enhancement of the sweetness of foods; conditions: in foods; levels as low as
Description: (§1) It can thus be used as an enhancer to reduce the quantity of artificial sweeteners required or to permit diminution of the quantity of natural sweeteners such as sugar.

[6] = fragrance of perfume composition; conditions: thienopyrimidine replaces 20 parts of caraway essence
[7] = taste of aqueous solutions; conditions: by itself at levels of 10 parts in 10^10, aqueous solutions
Description: as §1

[8] = 0.1% alcohol solution on a blotter strip

SMILES: Cc1ncc2c(n1)CSC2 [2-methyl-5,7-dihydrothieno-[3,4d]-pyrimidine]
- potency relative to other analogs [1]: less potent
- toxicity relative to other analogs [1]: less toxic
- odor/flavor character in aqueous solution ([2]; 0.001 ppm in aqueous solution): sweet roasted nut, popcorn character with a light astringency
- flavor in water ([2]; 0.003 ppm in water): popcorn, roasted peanut flavor with an astringency like peanut skins
- odor [2, 8]: sharp, fresh roasted, sweet nut with a popcorn character
- persistence of odor [2, 8]: the odor seems to disappear because of anosmia
- flavor effect in chicken broth ([2]; 10^^-6 ppm in chicken broth): accentuates the root vegetable flavor notes
- odor of the crystalline material ([2]; colorless crystalline material): powerful odor of roasted fresh, sweet nut with a definite popcorn character
- quality of vanilla flavor [3]: distinctly "natural" quality
- NOAEL ([4]; po, test animals, read-out: maximum no effective dose or the lowest dosage level at which essentially no signs of toxicity in test animals is observed): 34 mg/kg
- LD50 ([4]; acute, oral): 260 ± 40 mg/kg
- level at which the material begins to enhance the sweetness of foods [5]: 10 parts in 10^12
- caraway note after replacement of caraway essence [6]: the natural caraway note of the original perfume is retained
- aftertaste imparted to aqueous solutions [7]: sweet, pleasant, and non-bitter aftertaste

Reference: patent publication US3960860A, “2-Methyl-5,7-dihydrothieno-[3,4d]-pyrimidine” (priority 1975, dated 1976)
